Tested on: TNFα-induced gene expression in HMVECLs
Experiment: RNASeq of TNFα-induced gene expression
Type: cell-based, human
Conditions: 100 μM UM101, 10 μM SB203580

C[S+]([O-])c1ccc(-c2nc(-c3ccncc3)c(-c3ccc(F)cc3)[nH]2)cc1 (centres unmarked) [SB203580, reference compound]
bin (gene expression response pattern): MAP2K6 (HMVECLs, TNFα): 1 | bin (gene expression response pattern): MMP9 (HMVECLs, TNFα): 3 | bin (gene expression response pattern): MUC4 (HMVECLs, TNFα): 3 | bin (gene expression response pattern): NEURL3 (HMVECLs, TNFα): 5 | bin (gene expression response pattern): NIPAL4 (HMVECLs, TNFα): 5 | bin (gene expression response pattern): NOG (HMVECLs, TNFα): 5 | bin (gene expression response pattern): NUAK1 (HMVECLs, TNFα): 5 | bin (gene expression response pattern): NUAK2 (HMVECLs, TNFα): 5 | bin (gene expression response pattern): OR2I1P (HMVECLs, TNFα): 3 | bin (gene expression response pattern): PALMD (HMVECLs, TNFα): 5 | bin (gene expression response pattern): PCDH17 (HMVECLs, TNFα): 5 | bin (gene expression response pattern): PCLO (HMVECLs, TNFα): 5 | bin (gene expression response pattern): PDE7B (HMVECLs, TNFα): 5 | bin (gene expression response pattern): PDK4 (HMVECLs, TNFα): 5 | bin (gene expression response pattern): PGF (HMVECLs, TNFα): 5 | bin (gene expression response pattern): PLA1A (HMVECLs, TNFα): 3 | bin (gene expression response pattern): PRICKLE1 (HMVECLs, TNFα): 5 | bin (gene expression response pattern): PRKCH (HMVECLs, TNFα): 5 | bin (gene expression response pattern): PRRG4 (HMVECLs, TNFα): 3 | bin (gene expression response pattern): PTGER4P2 (HMVECLs, TNFα): 5 | bin (gene expression response pattern): RASSF9 (HMVECLs, TNFα): 5 | bin (gene expression response pattern): RGCC (HMVECLs, TNFα): 5 | bin (gene expression response pattern): RIMS1 (HMVECLs, TNFα): 5 | bin (gene expression response pattern): RN7SL471P (HMVECLs, TNFα): 5 | bin (gene expression response pattern): RNF152 (HMVECLs, TNFα): 5 | bin (gene expression response pattern): RP11-197M22.2 (HMVECLs, TNFα): 5 | bin (gene expression response pattern): RP11-244F12.3 (HMVECLs, TNFα): 5 | bin (gene expression response pattern): RP11-284F21.7 (HMVECLs, TNFα): 1 | bin (gene expression response pattern): RP11-309L24.2 (HMVECLs, TNFα): 5 | bin (gene expression response pattern): RP11-490B18.5 (HMVECLs, TNFα): 3 | bin (gene expression response pattern): RP11-758N13.1 (HMVECLs, TNFα): 5 | bin (gene expression response pattern): RPA4 (HMVECLs, TNFα): 5 | bin (gene expression response pattern): SEMA6D (HMVECLs, TNFα): 1 | bin (gene expression response pattern): SERTAD4 (HMVECLs, TNFα): 5 | bin (gene expression response pattern): SGK223 (HMVECLs, TNFα): 5 | bin (gene expression response pattern): SH3RF2 (HMVECLs, TNFα): 5 | bin (gene expression response pattern): SH3TC2 (HMVECLs, TNFα): 5 | bin (gene expression response pattern): SLC15A3 (HMVECLs, TNFα): 3 | bin (gene expression response pattern): SLC16A6 (HMVECLs, TNFα): 5 | bin (gene expression response pattern): SLC45A3 (HMVECLs, TNFα): 5 | bin (gene expression response pattern): SLCO4A1 (HMVECLs, TNFα): 5 | bin (gene expression response pattern): SMAD6 (HMVECLs, TNFα): 5 | bin (gene expression response pattern): SNORD12B (HMVECLs, TNFα): 3 | bin (gene expression response pattern): SOX18 (HMVECLs, TNFα): 5 | bin (gene expression response pattern): SSTR1 (HMVECLs, TNFα): 5 | bin (gene expression response pattern): TCHH (HMVECLs, TNFα): 3 | bin (gene expression response pattern): TGFA (HMVECLs, TNFα): 5 | bin (gene expression response pattern): TLR7 (HMVECLs, TNFα): 2 | bin (gene expression response pattern): TRIL (HMVECLs, TNFα): 1 | bin (gene expression response pattern): TRPC6 (HMVECLs, TNFα): 5 | bin (gene expression response pattern): TSLP (HMVECLs, TNFα): 3 | bin (gene expression response pattern): UNC5B-AS1 (HMVECLs, TNFα): 5 | bin (gene expression response pattern): VAV3 (HMVECLs, TNFα): 5 | bin (gene expression response pattern): VDR (HMVECLs, TNFα): 3 | bin (gene expression response pattern): Y_RNA (HMVECLs, TNFα): 3 | bin (gene expression response pattern): ZNF365 (HMVECLs, TNFα): 5 | bin (gene expression response pattern): ZNF467 (HMVECLs, TNFα): 5 | bin (gene expression response pattern): ZNF521 (HMVECLs, TNFα): 5 | bin (gene expression response pattern) (HPCA (ENSG00000121905)): 8 | bin (gene expression response pattern) (IFIH1 (ENSG00000115267)): 7 | bin (gene expression response pattern) (IL1A (ENSG00000115008)): 8 | bin (gene expression response pattern) (IL3RA (ENSG00000185291)): 7 | bin (gene expression response pattern) (IL12RB1 (ENSG00000096996)): 8 | bin (gene expression response pattern) (IRF8 (ENSG00000140968)): 7 | bin (gene expression response pattern) (KYNU (ENSG00000115919)): 7 | bin (gene expression response pattern) (LINC00092 (ENSG00000225194)): 7 | bin (gene expression response pattern) (LST1 (ENSG00000204482)): 7 | bin (gene expression response pattern) (LYPD6 (ENSG00000187123)): 7 | bin (gene expression response pattern) (MIR126 (ENSG00000199161)): 7 | bin (gene expression response pattern) (MOB3C (ENSG00000142961)): 7 | bin (gene expression response pattern) (MRGPRX4 (ENSG00000179817)): 7 | bin (gene expression response pattern) (NKD2 (ENSG00000145506)): 8 | bin (gene expression response pattern) (NKX3-1 (ENSG00000167034)): 8 | bin (gene expression response pattern) (OLR1 (ENSG00000173391)): 8 | bin (gene expression response pattern) (P2RX2 (ENSG00000187848)): 8 | bin (gene expression response pattern) (PARP14 (ENSG00000173193)): 7 | bin (gene expression response pattern) (PEXHG (ENSG00000104883)): 7 | bin (gene expression response pattern) (PRRT2 (ENSG00000167371)): 7 | bin (gene expression response pattern) (RCAN1 (ENSG00000159200)): 7 | bin (gene expression response pattern) (RND1 (ENSG00000172602)): 8 | bin (gene expression response pattern) (RP3-416H24.1 (ENSG00000257671)): 8 | bin (gene expression response pattern) (RP4-607I7.1 (ENSG00000255521)): 7 | bin (gene expression response pattern) (RP4-681N20.5 (ENSG00000275582)): 8 | bin (gene expression response pattern) (RP4-734G22.3 (ENSG00000272078)): 7 | bin (gene expression response pattern) (RP11-79H23.3 (ENSG00000261618)): 7 | bin (gene expression response pattern) (RP11-158I3.3 (ENSG00000269826)): 8 | bin (gene expression response pattern) (RP11-283G6.5 (ENSG00000255750)): 7 | bin (gene expression response pattern) (RP11-342K2.1 (ENSG00000279133)): 8 | bin (gene expression response pattern) (RP11-638I2.9 (ENSG00000258521)): 8 | bin (gene expression response pattern) (RP11-875011.2 (ENSG00000246130)): 7 | bin (gene expression response pattern) (SCUBE2 (ENSG00000175356)): 7 | bin (gene expression response pattern) (SFMBT2 (ENSG00000198879)): 7 | bin (gene expression response pattern) (SLC19A3 (ENSG00000135917)): 7 | bin (gene expression response pattern) (SLC26A9 (ENSG00000174502)): 8 | bin (gene expression response pattern) (SLC52A3 (ENSG00000101276)): 7 | bin (gene expression response pattern) (TMEM52B (ENSG00000165685)): 8 | bin (gene expression response pattern) (TNF (ENSG00000232810)): 8 | bin (gene expression response pattern) (TNIP3 (ENSG00000050730)): 7 | bin (gene expression response pattern) (TOX (ENSG00000198846)): 8 | bin (gene expression response pattern) (TP63 (ENSG00000073282)): 8 | bin (gene expression response pattern) (VCAM1 (ENSG00000162692)): 7

Reference: patent publication US11911393B2, “Non-catalytic substrate-selective p38alpha-specific MAPK inhibitors with endothelial-stabilizing and anti-inflammatory activity, and methods of use thereof” (University of Maryland, Baltimore, priority 2016, dated 2024)
